Assays:
EBV = assay: Inhibitory effect on EBV in H1 cells, bioassay by EBV DP activity in superinfected Raji cells; format: cell-based, Epstein-Barr virus; settings: EBV ID90 vs H1 cell CD50
Procedure: (§1) H1 cells were maintained in […] growth for two days prior to the initiation of treatment. The cells were centrifuged at 600 g for 10 min. at room temperature to separate them from the medium containing pre-existing virus particles. The H1 cells were seeded in 24 well plates at a density of 1×10^5 cells per well in 2 ml of fresh medium with or without drug and incubated at 37° C. for 5 days. The medium containing virion was saved and used for evaluating the inhibitory effect of drugs on virus production and infectivity by use of a bioassay. The virion were pelleted from the cell free medium by centrifugation at 45,000 rpm for 90 min. in a SW-50 Ti rotor (Beckman). The virion were resuspended in 1 ml growth medium and then used to infect 1×10^6 Raji cells for 48 hours. Since the level of EBV DP activity in Raji cells post superinfection is proportional to the number of virions added, the EBV specific DP activity induced was able to be measured. The inhibitory drug effect was calculated by comparing the EBV DP activity to multiple dilution controls.
and compared with controls. Hl cells were treated for 5 days and the
ID90 was determined by bioassay.

H1 cells = assay: Cytotoxicity in H1 cells (72 hours, cell count); format: cell-based; settings: summary statement, cells not specified
Procedure: Inhibitory effect of compounds on EBV: The CD50 was performed by
exposing Hl cells to different concentrations of the compounds in normal
growth medium at 37° C. for 72 hours; the cells were then counted
and compared with controls. Hl cells were treated for 5 days and the […]

mitochondrial DNA = assay: Mitochondrial DNA content in H1 cells (slot blot assay); format: cell-based, human; settings: 1 mM, 6 days
Procedure: as §1
Slot Blot Assay--The amount of mitochondrial DNA was measured by the slot blot method (2). […] The amount of mitochondrial DNA in the treated and non-treated H1 cells was quantified by densitometer (LKB Ultroscan XL).

[1] = Clearance of L-(-)-FMAU from plasma and liver of mice after oral administration; format: in vivo, mouse
Procedure: The clearance of L-(-)-FMAU from the plasma and liver of mice after oral administration was evaluated. Mice were […] with L-(-)-FMAU which was tritium labeled (radiospecificity of […]).
FIG. 11 is a graph of the plasma concentration of L-(-)-FMAU in mice after oral administration 10 over time, and FIG. 12 is a graph of the concentration of L-(-)-FMAU in mouse liver after oral administration over time (cross, 10 mg/kg administered bid (bi-daily) for 30 days prior to pharmacokinetic study and then study carried out on day thirty one on administration of same concentration; dark circle, 50 mg/kg administered bid for 30 days prior to study and then study carried out on day thirty one on administration of same concentration; open circle, 50 mg/kg administered for the first time on the first day of the study).
At the times indicated (see FIGS. 10 and 11) the mice were bled from their retro-orbital sinus using heparinized capillaries. The plasma was extracted with trichloroacetic acid and neutralized with freon/trioctylamine. Supernatants were directly counted and the concentration calculated.

[2] = Toxicity in BDF1 female mice, change in body weight over thirty days; format: in vivo, mouse
Procedure: FIG. 13a illustrates the change in body weight over thirty days of control BDF1 female mice. FIGS. 13b and 13c illustrate the change in body weight over thirty days of BDF1 female mice dosed with 10 mg/kg (13b) and 50 mg/kg (13c) bid of L-(-)-FMAU. The body weight presented represents the mean and standard deviation of that of five to seven mice.

[3] = Clinical chemistry of mouse plasma after L-(-)-FMAU treatment; format: in vivo; settings: 10 or 50 mg/kg bid for thirty days
Procedure: FIGS. 14-20 provide the clinical chemistry of mouse plasma after administration of L-(-)-FMAU at 10 mg/kg (three mice) or 50 mg/kg (three mice) bid for thirty days.

[4] = with the exception of mouse 50-2

For `Cc1cn([C@@H]2O[C@H](CO)[C@@H](O)[C@@H]2F)c(=O)[nH]c1=O` [D-FMAU], the “Therapeutic Index (CD50 /ID90)” value (EBV) was 50.

In the case of `Cc1cn([C@H]2O[C@@H](CO)[C@H](O)[C@H]2F)c(=O)[nH]c1=O` [L-FMAU, 2'-fluoro-5-methyl-β-L-arabinofuranosyluridine], the “cytotoxicity (in words)” value (H1 cells) is reported as “low cytotoxicity”, the “Therapeutic Index (CD50 /ID90)” value (EBV) is reported as 200 and the “inhibition of mitochondrial DNA content in H1 cells” value (mitochondrial DNA) is reported as “No inhibition”. For the same compound, the “time of peak concentration in liver” value ([1]; 10 or 50 mg/kg, liver) was “approximately one”, the clearance from liver ([1]; liver) was “substantially cleared from both plasma and liver after four hours” and the clearance from plasma ([1]; plasma) was “substantially cleared from both plasma and liver after four hours”. The tolerability ([2]; BDF1 female mice, 10 and 50 mg/kg bid, thirty days) was “well tolerated”, the “change in body weight” value ([2]; mouse, in vivo) was “did not appear to significantly affect the weight of the mice over thirty days” and the “lactic acid in mouse plasma” value [3] was “not significantly different from those of the control mice”. The “lactic dehydrogenase in mouse plasma” value [3] was “not significantly different from those of the control mice”, the “total bilirubin in mouse plasma” value [3] was “fall within the normal human range (less than 1.2 mg/dL)” and the “alkaline phosphatase in mouse plasma” value ([3]; normal human level 30-114 U/L) was “somewhat higher than the normal human level”. For the same compound, the “ALT (SGPT) in mouse plasma” value [3, 4] was “not different from those of the control mice”, the “creatinine in mouse plasma” value [3, 4] was “not different from those of the control mice” and the “AST (SGOT) in mouse plasma” value ([3]; with the exception of mouse 50-2 and mouse 10-2) was “not different from those of the control mice”.

For `Nc1nc(=O)n([C@H]2O[C@@H](CO)[C@H](O)[C@H]2F)cc1I` [L-FIAC, 2'-fluoro-5-iodo-β-L-arabinofuranosylcytosine], the “Therapeutic Index (CD50 /ID90)” value (EBV) was over 40.

In the case of `CCc1cn([C@H]2O[C@@H](CO)[C@H](O)[C@H]2F)c(=O)[nH]c1=O` [L-FEAU, 2'-fluoro-5-ethyl-β-L-arabinofuranosyluridine], the “Therapeutic Index (CD50 /ID90)” value (EBV) is reported as 15.

For `Nc1nc2c(ncn2COCCO)c(=O)[nH]1` [ACV], the “Therapeutic Index (CD50 /ID90)” value (EBV) was 20.

For `O=C(O)P(=O)(O)O` [PFA], the “Therapeutic Index (CD50 /ID90)” value (EBV) was 16.

In the case of `Nc1nc2c(ncn2CCC(CO)CO)c(=O)[nH]1` [PCV], the “Therapeutic Index (CD50 /ID90)” value (EBV) is reported as 25.

In the case of `Nc1nc2c(ncn2COC(CO)CO)c(=O)[nH]1` [DHPG], the “Therapeutic Index (CD50 /ID90)” value (EBV) is reported as 15.

With `Nc1nc(=O)n([C@@H]2O[C@H](CO)[C@@H](O)[C@@H]2F)cc1I` [D-FIAC] the “Therapeutic Index (CD50 /ID90)” value (EBV) was 25.

In the case of `CCc1cn([C@@H]2O[C@H](CO)[C@@H](O)[C@@H]2F)c(=O)[nH]c1=O` [D-FEAU], the “Therapeutic Index (CD50 /ID90)” value (EBV) is reported as 2000.

With `O=c1[nH]c(=O)n([C@@H]2O[C@H](CO)[C@@H](O)[C@@H]2F)cc1I` [D-FIAU] the “Therapeutic Index (CD50 /ID90)” value (EBV) was 40.

For `O=c1[nH]c(=O)n([C@H]2O[C@@H](CO)[C@H](O)[C@H]2F)cc1I` [L-FIAU, 2'-fluoro-5-iodo-β-L-arabinofuranosyluridine], the “Therapeutic Index (CD50 /ID90)” value (EBV) was 12.
